Activity calls are given as the source filed them.
Assays:
[1] = target: T1, Apoptotic protease-activating factor 1 (Homo sapiens, UniProt O14727); assay type: functional
T1 sequence (O14727 whole entry): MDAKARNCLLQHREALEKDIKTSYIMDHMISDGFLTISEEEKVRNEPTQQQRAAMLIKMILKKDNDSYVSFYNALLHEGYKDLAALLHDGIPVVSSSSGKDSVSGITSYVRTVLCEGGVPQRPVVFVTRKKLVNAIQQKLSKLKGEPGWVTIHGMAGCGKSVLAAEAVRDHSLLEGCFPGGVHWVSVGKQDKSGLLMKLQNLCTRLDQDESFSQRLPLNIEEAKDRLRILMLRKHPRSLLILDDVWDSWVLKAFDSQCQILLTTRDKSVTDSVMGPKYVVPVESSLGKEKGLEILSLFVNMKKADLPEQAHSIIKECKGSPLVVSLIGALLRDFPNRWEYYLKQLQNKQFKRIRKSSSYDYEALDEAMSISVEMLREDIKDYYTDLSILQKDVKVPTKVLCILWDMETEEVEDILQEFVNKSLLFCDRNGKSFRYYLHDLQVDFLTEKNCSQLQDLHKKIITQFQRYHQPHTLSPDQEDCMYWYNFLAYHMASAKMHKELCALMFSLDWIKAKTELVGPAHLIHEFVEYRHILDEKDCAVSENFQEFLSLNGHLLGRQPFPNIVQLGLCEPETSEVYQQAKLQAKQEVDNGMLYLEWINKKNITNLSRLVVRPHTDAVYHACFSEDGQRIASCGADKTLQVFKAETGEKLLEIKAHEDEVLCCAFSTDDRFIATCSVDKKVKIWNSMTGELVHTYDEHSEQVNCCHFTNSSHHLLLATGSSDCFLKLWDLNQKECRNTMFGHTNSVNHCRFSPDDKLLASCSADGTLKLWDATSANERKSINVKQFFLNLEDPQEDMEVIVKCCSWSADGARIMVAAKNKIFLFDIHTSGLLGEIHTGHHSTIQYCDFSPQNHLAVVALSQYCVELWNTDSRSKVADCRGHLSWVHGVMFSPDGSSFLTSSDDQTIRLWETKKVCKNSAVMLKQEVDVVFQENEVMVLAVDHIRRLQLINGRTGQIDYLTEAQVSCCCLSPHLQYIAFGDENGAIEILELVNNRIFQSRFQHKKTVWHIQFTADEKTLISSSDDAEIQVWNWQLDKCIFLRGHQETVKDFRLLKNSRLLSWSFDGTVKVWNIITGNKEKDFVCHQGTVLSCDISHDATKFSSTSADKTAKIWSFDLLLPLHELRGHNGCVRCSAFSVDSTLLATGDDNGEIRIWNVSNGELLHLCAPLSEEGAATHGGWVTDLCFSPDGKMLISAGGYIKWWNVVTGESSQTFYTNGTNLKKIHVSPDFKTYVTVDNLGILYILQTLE

[2] = target: T2, DNA repair protein RAD52 homolog (Homo sapiens, UniProt P43351); assay type: functional, biochemical
T2 sequence (P43351 whole entry): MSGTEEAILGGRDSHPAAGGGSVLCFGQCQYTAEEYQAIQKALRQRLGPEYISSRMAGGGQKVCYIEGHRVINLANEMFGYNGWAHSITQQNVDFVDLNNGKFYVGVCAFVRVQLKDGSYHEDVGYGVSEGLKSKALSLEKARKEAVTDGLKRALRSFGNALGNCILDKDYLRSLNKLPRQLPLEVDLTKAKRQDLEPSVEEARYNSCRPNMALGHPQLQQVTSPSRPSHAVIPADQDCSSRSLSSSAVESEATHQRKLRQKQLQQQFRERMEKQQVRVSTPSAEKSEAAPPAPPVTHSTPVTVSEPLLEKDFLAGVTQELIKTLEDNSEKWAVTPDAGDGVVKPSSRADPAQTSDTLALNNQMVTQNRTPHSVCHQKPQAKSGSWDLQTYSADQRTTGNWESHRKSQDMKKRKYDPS

[3] = target: T3, Histone-lysine N-methyltransferase NSD2 (Homo sapiens, UniProt O96028); assay type: biochemical
T3 sequence (O96028 whole entry): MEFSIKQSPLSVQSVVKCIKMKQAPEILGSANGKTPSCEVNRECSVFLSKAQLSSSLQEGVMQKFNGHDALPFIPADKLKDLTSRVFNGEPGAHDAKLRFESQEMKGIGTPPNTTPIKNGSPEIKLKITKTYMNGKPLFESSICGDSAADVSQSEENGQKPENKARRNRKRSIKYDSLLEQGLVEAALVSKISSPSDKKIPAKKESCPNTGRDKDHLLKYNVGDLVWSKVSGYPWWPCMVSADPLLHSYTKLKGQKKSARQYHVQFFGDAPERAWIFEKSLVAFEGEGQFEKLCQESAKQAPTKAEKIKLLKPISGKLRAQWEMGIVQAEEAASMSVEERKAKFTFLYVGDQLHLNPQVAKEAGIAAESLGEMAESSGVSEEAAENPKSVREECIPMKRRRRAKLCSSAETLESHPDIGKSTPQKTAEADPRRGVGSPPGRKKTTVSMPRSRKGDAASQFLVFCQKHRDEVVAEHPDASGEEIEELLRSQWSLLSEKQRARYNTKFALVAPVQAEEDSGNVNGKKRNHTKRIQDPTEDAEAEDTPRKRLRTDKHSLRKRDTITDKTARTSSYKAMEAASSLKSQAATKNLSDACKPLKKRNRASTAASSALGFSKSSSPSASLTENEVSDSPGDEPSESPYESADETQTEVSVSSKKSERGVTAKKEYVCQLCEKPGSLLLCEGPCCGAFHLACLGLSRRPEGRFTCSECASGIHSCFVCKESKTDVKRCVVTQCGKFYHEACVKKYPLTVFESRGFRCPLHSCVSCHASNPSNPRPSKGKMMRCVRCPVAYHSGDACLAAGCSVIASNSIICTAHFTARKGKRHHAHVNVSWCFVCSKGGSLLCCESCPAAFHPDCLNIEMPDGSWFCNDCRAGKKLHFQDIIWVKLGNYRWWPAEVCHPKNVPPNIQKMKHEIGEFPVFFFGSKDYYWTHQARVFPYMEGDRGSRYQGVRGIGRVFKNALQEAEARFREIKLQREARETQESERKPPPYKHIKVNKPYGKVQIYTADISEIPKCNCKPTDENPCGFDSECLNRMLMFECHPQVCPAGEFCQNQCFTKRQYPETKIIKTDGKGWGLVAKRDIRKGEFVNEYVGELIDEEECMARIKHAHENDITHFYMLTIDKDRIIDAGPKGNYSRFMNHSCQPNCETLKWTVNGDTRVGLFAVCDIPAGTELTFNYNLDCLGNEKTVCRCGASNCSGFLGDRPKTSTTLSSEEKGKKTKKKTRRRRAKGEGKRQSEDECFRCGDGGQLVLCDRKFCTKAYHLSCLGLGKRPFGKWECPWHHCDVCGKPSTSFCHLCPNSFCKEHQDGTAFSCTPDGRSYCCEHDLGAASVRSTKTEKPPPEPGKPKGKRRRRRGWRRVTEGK

Row | Compound | IC50 [1] | AC50 [2] | AC50 [3]
1 | CCCCCCCCCCOC(=O)Cn1c(COc2ccccc2)[n+](C)c2ccccc21 | 12.6 µM (active) | 12.5 µM (active) | 
2 | CCOC(=O)c1c(-c2ccc(-c3ccccc3)cc2)csc1NC(=O)CNCCN(C)C | 32.5 µM (active) | 5.29 µM (active) | 
3 | CC(C)[n+]1ccn(C2=C([N-]S(=O)(=O)c3ccccc3)C(=O)c3ccccc3C2=O)c1 | 7.16 µM (active) |  | 5.79 µM (active)
4 | COc1cc(-c2nnc(SCc3cc(=O)oc4cc(O)c(O)cc34)o2)cc(OC)c1OC |  |  | 0.665 µM (active)
5 | N#Cc1c(NC(=O)c2ccc(Br)o2)n(-c2ccccc2)c2nc3ccccc3nc12 | 7.22 µM (active) |  | 11.6 µM (active)
